Measured values: PubChem BioAssay AID248 (DTP/NCI, 2004)
Inconclusive results and toxic doses are left out. Cut-off read from the data, not from the text of the source: active = T/C of 150% or more; inactive = T/C below 125%.

Tested on: L1210 leukemia ip in BDF1 mice, survival T/C
Assay: NCI In Vivo Anticancer Drug Screen. Data for tumor model L1210 Leukemia (intraperitoneal) in B6D2F1 (BDF1) mice
Conditions: endpoint: mean survival time, higher = longer survival
Method in brief: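 Transplanted-tumor mice were given test agent; controls received vehicle only. Survival readings from the two groups were divided (treated over control).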

[1] = dose: 100.0 mg/kg/injection, schedule: Q04DX002 (ip), vehicle: Klucel (hydroxypropylcellulose) (HPC)
[2] = dose: 200.0 mg/kg/injection, schedule: Q04DX002 (ip), vehicle: Klucel (hydroxypropylcellulose) (HPC)
[3] = dose: 100.0 mg/kg/injection, schedule: Q01DX001 (ip), vehicle: saline
[4] = dose: 400.0 mg/kg/injection, schedule: Q01DX001 (ip), vehicle: saline
[5] = dose: 100.0 mg/kg/injection, schedule: Q01DX009 (ip), vehicle: Klucel (hydroxypropylcellulose) (HPC)
[6] = dose: 200.0 mg/kg/injection, schedule: Q01DX009 (ip), vehicle: Klucel (hydroxypropylcellulose) (HPC)
[7] = dose: 400.0 mg/kg/injection, schedule: Q01DX009 (ip), vehicle: Klucel (hydroxypropylcellulose) (HPC)
[8] = dose: 100.0 mg/kg/injection, schedule: Q04DX003 (ip), vehicle: saline with Tween-80
[9] = dose: 200.0 mg/kg/injection, schedule: Q04DX003 (ip), vehicle: saline with Tween-80
[10] = dose: 400.0 mg/kg/injection, schedule: Q04DX003 (ip), vehicle: saline with Tween-80
[11] = dose: 50.0 mg/kg/injection, schedule: Q04DX002 (ip), vehicle: Klucel (hydroxypropylcellulose) (HPC)
[12] = dose: 100.0 mg/kg/injection, schedule: Q04DX003 (ip), vehicle: Klucel (hydroxypropylcellulose) (HPC)
[13] = dose: 200.0 mg/kg/injection, schedule: Q04DX003 (ip), vehicle: Klucel (hydroxypropylcellulose) (HPC)
[14] = dose: 400.0 mg/kg/injection, schedule: Q04DX003 (ip), vehicle: Klucel (hydroxypropylcellulose) (HPC)

Measured: T/C

Cc1cc(C(=O)Nc2ccc(NC3=NCCN3)cc2)cc(C(=O)Nc2ccc(NC3=NCCN3)cc2)c1
inactive: dose: 3.0 mg/kg/injection, schedule: Q01DX Z (ip), vehicle: saline 103 % of control | dose: 6.0 mg/kg/injection, schedule: Q01DX Z (ip), vehicle: saline 103 % of control | dose: 12.0 mg/kg/injection, schedule: Q01DX Z (ip), vehicle: saline 100 % of control | dose: 15.0 mg/kg/injection, schedule: Q01DX Z (ip), vehicle: saline 110 % of control

Cc1n[n+]([O-])c(C)cc1[N+](=O)[O-]
inactive: [1] 112 % of control | [2] 101 % of control

ClC1CCCCCCCCC1
inactive: dose: 50.0 mg/kg/injection, schedule: Q01DX001 (ip), vehicle: saline 122 % of control | [3] 95 % of control | [4] 92 % of control

O=C(O)c1cc(Br)cc(I)c1I
inactive: dose: 100.0 mg/kg/injection, schedule: Q04DX002 (ip), vehicle: saline with Tween-80 105 % of control | dose: 200.0 mg/kg/injection, schedule: Q04DX002 (ip), vehicle: saline with Tween-80 105 % of control | dose: 400.0 mg/kg/injection, schedule: Q04DX002 (ip), vehicle: saline with Tween-80 110 % of control

CN(C(N)=O)C1CCCC1
inactive: dose: 100.0 mg/kg/injection, schedule: Q04DX003 (ip), vehicle: saline 96 % of control | dose: 200.0 mg/kg/injection, schedule: Q04DX003 (ip), vehicle: saline 91 % of control | dose: 400.0 mg/kg/injection, schedule: Q04DX003 (ip), vehicle: saline 96 % of control

COC(=O)C(C)NC(=O)CNC(=O)OCc1ccccc1 (stereo unspecified)
inactive: dose: 100.0 mg/kg/injection, schedule: Q01DX009 (ip), vehicle: saline with Tween-80 97 % of control | dose: 200.0 mg/kg/injection, schedule: Q01DX009 (ip), vehicle: saline with Tween-80 102 % of control | dose: 400.0 mg/kg/injection, schedule: Q01DX009 (ip), vehicle: saline with Tween-80 92 % of control

Cc1nccnc1Sc1ccc2ccccc2c1
inactive: [5] 95 % of control | [6] 92 % of control | [7] 90 % of control

O=[N+]([O-])c1ccc(Cl)c(CNc2ncnc3c2ncn3C2CCCCO2)c1 (stereo unspecified)
inactive: [8] 102 % of control | [9] 92 % of control | [10] 102 % of control

Fc1ccc(CC(F)(F)F)cc1
inactive: dose: 100.0 mg/kg/injection, schedule: Q01DX001 (ip), vehicle: saline with Tween-80 97 % of control | dose: 200.0 mg/kg/injection, schedule: Q01DX001 (ip), vehicle: saline with Tween-80 105 % of control | dose: 400.0 mg/kg/injection, schedule: Q01DX001 (ip), vehicle: saline with Tween-80 98 % of control

Cn1nc(N)c2cc(C#N)c(N)nc21
inactive: [5] 90 % of control | [6] 90 % of control | [7] 95 % of control

CC(C)(CN=Cc1cccc(O)c1)N=Cc1cccc(O)c1
inactive: dose: 75.0 mg/kg/injection, schedule: Q01DX009 (ip), vehicle: DMSO 95 % of control | dose: 100.0 mg/kg/injection, schedule: Q01DX001 (ip), vehicle: DMSO 100 % of control | dose: 100.0 mg/kg/injection, schedule: Q04DX003 (ip), vehicle: DMSO 89 % of control | dose: 150.0 mg/kg/injection, schedule: Q01DX009 (ip), vehicle: DMSO 93 % of control | dose: 200.0 mg/kg/injection, schedule: Q01DX001 (ip), vehicle: DMSO 96 % of control | dose: 200.0 mg/kg/injection, schedule: Q04DX003 (ip), vehicle: DMSO 88 % of control | dose: 400.0 mg/kg/injection, schedule: Q01DX001 (ip), vehicle: DMSO 100 % of control | dose: 400.0 mg/kg/injection, schedule: Q04DX003 (ip), vehicle: DMSO 89 % of control

CCN(CC)c1ccc(/C=N\N(C)C)cc1
inactive: dose: 50.0 mg/kg/injection, schedule: Q01DX009 (ip), vehicle: Klucel (hydroxypropylcellulose) (HPC) 97 % of control | [5] 101 % of control | [6] 106 % of control

C=CCCC1(CC=C)C(=O)NC(=O)NC1=O
inactive: dose: 75.0 mg/kg/injection, schedule: Q01DX001 (ip), vehicle: saline 100 % of control | dose: 150.0 mg/kg/injection, schedule: Q01DX001 (ip), vehicle: saline 104 % of control

CCOC(=O)/C(C#N)=C/c1ccc2n1Cc1cc(OC)c(OC)cc1N(C(C)=O)C2
inactive: dose: 25.0 mg/kg/injection, schedule: Q04DX002 (ip), vehicle: Klucel (hydroxypropylcellulose) (HPC) 95 % of control | [11] 93 % of control | [1] 87 % of control

CC1(O)C(=O)C=Cc2ccccc21 (stereo unspecified)
inactive: dose: 100.0 mg/kg/injection, schedule: Q01DX001 (ip), vehicle: Klucel (hydroxypropylcellulose) (HPC) 93 % of control | dose: 200.0 mg/kg/injection, schedule: Q01DX001 (ip), vehicle: Klucel (hydroxypropylcellulose) (HPC) 102 % of control | dose: 400.0 mg/kg/injection, schedule: Q01DX001 (ip), vehicle: Klucel (hydroxypropylcellulose) (HPC) 96 % of control

O=[N+]([O-])c1cccc(/C=N/n2cn[nH]c2=S)c1
inactive: [12] 94 % of control | [13] 94 % of control | [14] 96 % of control

CC1(C)N=C(N)N=C(N)N1c1ccc(Cl)c(C(F)(F)F)c1
inactive: dose: 8.33 mg/kg/injection, schedule: Q01DX009 (ip), vehicle: saline with Tween-80 115 % of control | dose: 8.8 mg/kg/injection, schedule: Q04DX003 (ip), vehicle: saline with Tween-80 107 % of control | dose: 12.5 mg/kg/injection, schedule: Q01DX009 (ip), vehicle: saline with Tween-80 118 % of control | dose: 13.3 mg/kg/injection, schedule: Q04DX003 (ip), vehicle: saline with Tween-80 104 % of control | dose: 20.0 mg/kg/injection, schedule: Q04DX003 (ip), vehicle: saline with Tween-80 101 % of control | dose: 25.0 mg/kg/injection, schedule: Q01DX009 (ip), vehicle: saline with Tween-80 116 % of control | dose: 30.0 mg/kg/injection, schedule: Q04DX003 (ip), vehicle: saline with Tween-80 106 % of control | dose: 33.0 mg/kg/injection, schedule: Q01DX009 (ip), vehicle: saline with Tween-80 118 % of control | dose: 45.0 mg/kg/injection, schedule: Q04DX003 (ip), vehicle: saline with Tween-80 115 % of control | dose: 50.0 mg/kg/injection, schedule: Q01DX009 (ip), vehicle: saline with Tween-80 98 % of control | [8] 108 % of control

COc1cc2oc(C)c(C)c2cc1/C=C\[N+](=O)[O-]
inactive: [11] 96 % of control | [5] 93 % of control | [1] 93 % of control | [6] 98 % of control | [2] 96 % of control | [7] 100 % of control

CC(C)C1CC2CCC3C(C)(C(=O)O)CCCC3(C)C2CC1CO (stereo unspecified)
inactive: [8] 92 % of control | [9] 92 % of control | [10] 93 % of control

CC(=O)OC1CCCOC1OC(C)=O (stereo unspecified)
inactive: [3] 99 % of control | dose: 100.0 mg/kg/injection, schedule: Q01DX009 (ip), vehicle: saline 106 % of control | dose: 200.0 mg/kg/injection, schedule: Q01DX001 (ip), vehicle: saline 100 % of control | dose: 200.0 mg/kg/injection, schedule: Q01DX009 (ip), vehicle: saline 100 % of control | [4] 94 % of control | dose: 400.0 mg/kg/injection, schedule: Q01DX009 (ip), vehicle: saline 95 % of control

NC(=O)NC(NC(=O)NC(NC(N)=O)c1ccco1)c1ccco1 (stereo unspecified)
inactive: [12] 102 % of control | [13] 96 % of control | [14] 88 % of control
